pIC50, pKi: −log10 of the molar value. “Also recorded” adds a separate entry of the source. Where two headings read alike, the source gives them in different places.
Columns and labels:
RAMOS cell lysate = assay: Gel-based ABPP of alkyne probes in RAMOS cell lysate; parameters: species or system human; details: RAMOS cell lysate 1 mg/mL, 10 and 100 μM, 1 h
From the text: Greater reactivity yields a higher isoDTB ratio. Ratios ≥ 4 (dashed line) are considered liganded.
Nonetheless, since the formation of the glutathione conjugate was clearly notable, we wanted to investigate the reactivity of 1a with a more diverse set of thiols. Therefore, we examined all three electrophilic groups for their ability to label cysteines in whole-cell lysates. First, alkyne-functionalized reagents (1b–3b, for structures, see Scheme S1) were synthesized to allow for gel-based activity-based protein profiling (ABPP). […] Since all compounds share the same scaffold and differ only by their reactive functional group, we anticipate that any differences in labeling intensity should primarily stem from differences in electrophilicity. […] CAPA reporter cells were prepared by transiently transfecting HEK293T with a plasmid enabling the cytoplasmic expression of the Halotag protein, and concentration-dependent cell permeability was assessed. […]
Cells were harvested by centrifugation, washed trice with ice cold PBS (Ph 7.4) and stored at -70°C until lysis. […] Lysates were cleared by centrifugation (15’000 rcf) and the proteinconcentration was determined via BCA assay (Pierce BCA Protein Assay Kit, Thermo Fisher Scientific) according to the vendors instructions. […]

wild-type EGFR = wild-type EGFR (Homo sapiens, UniProt P00533); assay: biochemical; details: in vitro kinase assay
wt EGFR = target: T1, wt EGFR (Homo sapiens, UniProt P00533); assay: biochemical; type: biochemical
T1 construct: purchased Sino Biological

EGFR in A431 cells = EGFR in A431 cells (Homo sapiens, UniProt P00533); assay: Gel-based ABPP of EGFR probes in A431 cells; details: for in-cell EGFR labeling, competition with excess Afatinib: pretreatment Afatinib 5 μM; for target selectivity in time-course labeling: 1 µM, up to 6 h
Description: With this probe in hand, we treated wild-type EGFR overexpressing A431 cells at a probe concentration of 1 μM for 1 h at 37 °C, followed by lysis and fluorescent labeling via CuAAC.
For EGFR -probes, A431 -cells were seeded at 60’000 cells/well in a 6-well plate (Greiner Bio-One) and incubated until 80 -100% confluencey. Before treatment , cells were washed twice with PBS. Cells were incubated with the indicated compound concentration (final conc. of 1% DMSO in RPMI -FCS ) at 37 °C.
After the incubati on, cells were washed twice with ice cold PBS and lysed in ice -cold RIPA -buffer containing cOmplete TM protease inhibitor (Roche), 50 mM iodo acetamide (I1149, Sigma Aldrich) and
Following a 10 min incubation at 37 °C lysat es were transferred
TBTA, 0.5 mM TCEP, 0.05 mM fluorescein-N3) in a shaker (800 rpm, 37 °C) for 45 minutes. Afterwards, proteins were precipitated with the 4-fold volume of acetonitrile and cetrifuged (14’00 rcf, 5 min). The solvent was removed and precipitates were resuspended in 80% EtOH followed by another round of centrifugation (10’000 rcf, 5 min). The pellets were aspirated and left to dry on air for 5-10 minutes.
and bands were quantified in ImageLab 6.1.

A431 cells = assay: Proteomic pulldown with EGFR probes in A431 cells (LFQ); type: cell-based, human; details: for # Labelled Proteins (total number of significantly enriched proteins) / off-targets enriched: 10 μM probe
Description: To gain a more detailed understanding of which proteins are labeled by the corresponding probe, we performed a proteomic pulldown experiment. […] . […] Additionally, we also wanted to investigate proteomic engagement under more extreme conditions, using a 10 μM probe concentration. […] Even though both probes enriched a large portion of proteins, EGFR was still among the most prominent hits for the phosphonamidate probe and only to a lesser extent for 5 (Figure S11). Overall, we observed a certain degree of complementarity between the off-targets obtained from the corresponding probes (Figures j and S12). […] Most prominently, selenoprotein SELENOT and solute carrier protein SLC25A32 were only enriched by phosphonamidate probe 7. On the other hand, several proteins like the cysteine proteases ATG4B, CTSB, and BOLA2 were exclusively enriched by DMAC probe 5.
Figure S 10: Volcano blots obtained from label free quantification of the proteins from streptavidin pulldowns performed with 1 µM probe 5 or 7 (in comparison to the DMSO treated sample). Proteins were identified and quantified and blotted as described in 4.8: Variance stabilization and Perseus-type […]
At the tested concentration, both probes solely enrich
EGFR. Data was obtained from 4 independent replicates.
Figure S 11: Volcano blots obtained from label free quantification of the proteins from streptavidin pulldowns performed with 10 µM probe 5 or 7 (in comparison to the DMSO treated sample). Proteins […]
imputation were enabled. Proteins surpassing a log 2 fold-change of 2.5 and a -log10 adjusted p-value […]
proteins can be found in Supplementary Table 1. Data was obtained from 4 independent replicates. […]
4.8 In-cell protein labeling and s ample preparation for proteomic pull-down Cells were cultured, treated and lysed as described in 4.4. Lysates (approx. 200 μg of protein each) […]
Afterwards, the samples we re processed according to a procedure published by Becker et al. 10: A total of 50 μl of mixed hydrophobic and hydrophilic carboxylate -coated magnetic beads (1:1, prewashed with PBS; Seramag™, Cytavia) was added to the click reaction mixture followed by 600 μl of absolute ethanol to precipitate the proteins. Beads were washed thrice with of 80% ethanol and proteins were eluted by two sequential washes of 0.2% SDS in PBS. The eluted proteins were directly transferred onto 30 μl of streptavidin-coated magnetic beads (prewashed with 0.2% SDS in PBS; New England Biolabs) and incubated on a shaker for 1 h at r.t. Streptavidin-beads were washed thrice with 8 M urea, PBS pH 7.4 and MilliQ water. Washed beads were resuspended in 100 mM ABC buffer, followed by […]
trypsinized overnight at 37 °C (1.5 µg/sample, Promega). The supernatant was removed, acidified to 1% TFA, centrifuged at 10‘000 rcf for 5 minutes and stored at -20 °C until measurement. Before MS/MS analysis a quality-control run was conducted on a Waters XEVO G2-XS QTof instrument to ensure […]
Samples were diluted based on the QC-runs to ensure equal loading. LC-MS/MS analysis was performed using an UltiMate 3000 RSLC nano LC system coupled on -line to an Orbitrap Fusion mass spectrometer (Thermo Fisher Scientific). For sample loading a PepMap C -18 trap-column (Thermo Fischer Scientific) of 0.075 mm ID x 50 mm length, 3 μm particle size and 100 Å pore size was used. The loading mobile phase A contained 1% acetonitrile and 0.05% TFA acid in water, and mobile phase B 0.05% TFA acid in acetonitrile. Reversed-phase separation was performed using a 50 cm analytical column (in-house packed with Poroshell 120 EC-C18, 2.7μm, Agilent Technologies) with mobile phase A contained 0.1% formic acid in water, and mobile phase B 0.1% formic acid in acetonitrile using a 93 […]
ions with charge states 2-4 were isolated with a mass selecting quadrupole (isolation window 1.6 m/z)

RAMOS cells = assay: Off-target reactivity in EGFR-negative RAMOS cells (gel-based); details: up to 10 μM, 1 h, 1 μM time course
Description: probe 5 in EGFR-negative RAMOS-cells. Cells (3x10^6/ml) were treated with the indicated probe-
concentration for 1 h @ 37 °C in RPMI –FCS. After the treatment, cells were processed according to the
Data is representative of three independent experiments. a) Fluorescent gel
of RAMOS-cells treated with the indicated probe-concentration. b) Relative fluorescent intensity of
three independent experiments c) Fluorescent gel of RAMOS-cells treated 1 µM probe 5 or 7 for the
indicated time. b) Relative fluorescent intensity of three independent experiments (quantitative results
were normalized to the most intense band in each replicate)
For BTK-probes, RAMOS-cells were seeded at 3x10^6 cells/ml (RMPI w/o FCS) and incubated with the indicated compound concentration (final conc. of 1% DM SO) at 37 °C. After the incubation, cells were harvested by centrifugation, washed twice with ice cold PBS and lysed in ice -cold RIPA-buffer containing cOmpleteTM protease inhibitor (Roche), 50 mM iodo acetamide (I1149, Sigma Aldrich) and
Following a 10 min incubation at 37 °C lysates were f urther processed as described above.

BTK in RAMOS cells = target: T2, BTK in RAMOS cells (Homo sapiens, UniProt Q06187); assay: Gel-based ABPP of BTK probes in RAMOS cells; type: cell-based; details: 250 nM, 1 h, 37 °C
T2 construct: we performed a gel-based ABPP experiment using RAMOS cells; host or cells: RAMOS
From the text: Motivated by these promising results, we wanted to extend the scope toward a different class of kinase inhibitors. […] Inspired by these findings, we synthesized a series of VPA probes based on the pyrazolo[3,4-d]-pyrimidine scaffold (8–11, Figure a), each harboring a different aromatic linker. To compare their reactivity and selectivity for BTK, we performed a gel-based ABPP experiment using RAMOS cells. […] In contrast, for all four PA probes, only one intense band was obtained at the same height as BTK. […] Analogously to Afatinib-derived probe 4a, we wanted to investigate whether one stereoisomer might show preferential binding.
(b) Comparison of the in-cell reactivity profiles of BTK probes 8–12 in RAMOS cells (250 nM, 1 h, 37 °C) analyzed by gel-based ABPP. […]
Fluorescence was monitored over 4 h at 30 °C every 60 seconds (λex = 360 nm and λem = 492 nm).
Background‑subtracted fluorescence intensity (RFU) was plotted against time (s), and data were fitted to a single‑phase association model: […]
4.7 In-cell protein labeling and in -gel fluorescence analysis […]
Afterwards, the precipitate was redissolved in 40 µl 8 M urea (100 mM Tris, pH 8), 8 µl Laemmli buffer were added and the samples were denatured at 95 °C for 5 minutes. Proteins were seperated via SDS - PAGE (12% or 4-20% acrylamide gels) and analyzed on a Gel Doc XR+ (Bio-Rad, USA). […]

T1 sequence (P00533 25-1210): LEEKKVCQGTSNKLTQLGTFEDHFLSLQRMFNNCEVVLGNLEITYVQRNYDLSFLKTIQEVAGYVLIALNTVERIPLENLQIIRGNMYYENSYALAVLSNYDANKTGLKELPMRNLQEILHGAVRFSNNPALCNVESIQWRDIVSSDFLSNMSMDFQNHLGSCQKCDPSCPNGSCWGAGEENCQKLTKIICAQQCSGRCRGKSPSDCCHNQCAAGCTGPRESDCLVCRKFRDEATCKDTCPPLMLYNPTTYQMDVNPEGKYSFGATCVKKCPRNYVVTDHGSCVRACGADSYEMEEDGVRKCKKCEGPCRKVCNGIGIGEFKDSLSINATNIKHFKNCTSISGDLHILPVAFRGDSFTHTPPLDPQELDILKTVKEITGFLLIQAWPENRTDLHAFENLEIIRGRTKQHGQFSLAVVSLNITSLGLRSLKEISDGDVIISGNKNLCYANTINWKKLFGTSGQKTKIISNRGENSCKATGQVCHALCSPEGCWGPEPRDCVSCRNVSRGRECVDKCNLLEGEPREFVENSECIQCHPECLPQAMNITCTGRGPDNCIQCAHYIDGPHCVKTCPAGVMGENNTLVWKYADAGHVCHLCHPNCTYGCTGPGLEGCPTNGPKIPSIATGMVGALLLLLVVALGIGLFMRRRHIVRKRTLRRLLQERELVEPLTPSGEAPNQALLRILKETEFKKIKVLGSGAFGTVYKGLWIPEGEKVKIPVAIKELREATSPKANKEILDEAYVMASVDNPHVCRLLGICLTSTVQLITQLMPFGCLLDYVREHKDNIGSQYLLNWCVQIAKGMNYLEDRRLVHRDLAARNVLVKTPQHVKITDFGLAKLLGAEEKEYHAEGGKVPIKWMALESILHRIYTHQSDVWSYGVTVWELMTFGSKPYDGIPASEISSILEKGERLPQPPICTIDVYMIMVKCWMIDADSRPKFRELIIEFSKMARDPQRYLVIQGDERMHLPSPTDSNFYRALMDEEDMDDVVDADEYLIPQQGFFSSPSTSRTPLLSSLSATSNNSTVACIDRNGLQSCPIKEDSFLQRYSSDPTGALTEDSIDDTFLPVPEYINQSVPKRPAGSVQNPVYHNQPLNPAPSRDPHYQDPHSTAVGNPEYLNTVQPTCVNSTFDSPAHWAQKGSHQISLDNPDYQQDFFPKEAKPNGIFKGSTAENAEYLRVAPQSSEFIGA
Sequence of EGFR in A431 cells (P00533 25-1210): as above
Sequence of wild-type EGFR (P00533 25-1210): as above
T2 sequence (Q06187 whole entry): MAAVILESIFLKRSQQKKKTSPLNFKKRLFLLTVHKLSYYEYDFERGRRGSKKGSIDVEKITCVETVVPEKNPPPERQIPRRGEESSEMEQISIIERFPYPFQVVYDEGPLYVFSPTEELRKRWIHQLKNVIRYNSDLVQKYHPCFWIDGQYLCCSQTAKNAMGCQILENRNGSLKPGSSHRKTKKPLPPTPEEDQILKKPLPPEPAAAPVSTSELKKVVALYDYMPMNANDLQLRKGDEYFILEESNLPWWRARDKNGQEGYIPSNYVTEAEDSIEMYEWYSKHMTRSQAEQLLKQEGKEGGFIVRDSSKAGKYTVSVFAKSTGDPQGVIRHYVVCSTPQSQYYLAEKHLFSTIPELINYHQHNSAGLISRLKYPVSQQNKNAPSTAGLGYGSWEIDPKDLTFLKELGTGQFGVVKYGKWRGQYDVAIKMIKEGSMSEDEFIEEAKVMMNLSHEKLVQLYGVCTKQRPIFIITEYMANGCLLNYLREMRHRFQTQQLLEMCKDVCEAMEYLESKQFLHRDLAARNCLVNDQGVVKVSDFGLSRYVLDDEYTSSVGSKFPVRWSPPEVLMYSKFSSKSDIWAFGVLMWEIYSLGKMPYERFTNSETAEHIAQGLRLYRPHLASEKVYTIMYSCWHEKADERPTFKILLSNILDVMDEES

Structure (SMILES) | in-cell EGFR labeling, competition with excess Afatinib (EGFR in A431 cells; 1 h 37 °C) | # Labelled Proteins (total number of significantly enriched proteins) (A431 cells; A431 cells) | off-targets enriched (A431 cells; A431 cells) | target selectivity in time-course labeling (EGFR in A431 cells) | off-target labeling in EGFR-negative cells (RAMOS cells) | other results
C#Cc1ccc(NC(=O)CCl)cc1 [3b] | – | – | – | – | – | fluorescent labeling signal (RAMOS cell lysate): most intense fluorescent signal
C=CP(=O)(Nc1cc2c(Nc3ccc(F)c(Cl)c3)ncnc2cc1O[C@H]1CCOC1)OCC (stereo partly shown) [4a] | – | – | – | – | – | pIC50 (wild-type EGFR): 9.17; pKi (wt EGFR; 4a 2–50 nM): 8.61; k inact (wt EGFR; 4a 2–50 nM): 0.24 × 10^–3 s^–1; k inact/K I ratio (wt EGFR; direct comparison): 97 × 10^3 M^–1 s^–1
C#CCCOP(=O)(C=C)Nc1cc2c(Nc3ccc(F)c(Cl)c3)ncnc2cc1O[C@H]1CCOC1 (stereo partly shown) [4c] | selective covalent engagement of EGFR | – | – | – | – | –
C#CCOc1cc2ncnc(Nc3ccc(F)c(Cl)c3)c2cc1NC(=O)/C=C/CN(C)C [compound 5, reference compound] | – | 327 | 118 | significantly higher off-target labeling | significant fluorescent labeling of off-targets | significantly enriched proteins (A431 cells; A431 cells, 1 μM probe, 2 h 37 °C, log2-fold change >2.5, adjusted p <0.01): solely enrich
C#CCOc1cc2ncnc(Nc3ccc(F)c(Cl)c3)c2cc1NP(=O)(C=C)OCC (stereo not shown) [compound 7] | EGFR-selective labeling | 119 | 327 | did not decrease | almost no labeling | significantly enriched proteins (A431 cells): solely enrich; also recorded: EGFR is the only protein significantly enriched; lowest concentration with detectable labeling signal (EGFR in A431 cells; 1 h 37 °C): ≤ 5 nM
C#CCCOP(=O)(C=C)Nc1ccccc1Cn1nc(-c2ccc(Oc3ccccc3)cc2)c2c(N)ncnc21 (stereo not shown) [compound 9] | – | – | – | – | – | in-cell reactivity profile (gel bands) (BTK in RAMOS cells): most intense labeling
